Earlier results as cited in US20120149888A1, “SYNTHESIS OF ARA-2'-O-METHYL-NUCLEOSIDES, CORRESPONDING PHOSPHORAMIDITES AND OLIGONUCLEOTIDES INCORPORATING NOVEL MODIFICATIONS FOR BIOLOGICAL APPLICATION IN THERAPEUCTICS, DIAGNOSTICS, G- TETRAD FORMING OLIGONUCLEOTIDES AND APTAMERS” (priority 2009, published 2012).
Entries after “also recorded” stand apart in the source; their conditions may differ. Like-named read-outs stand apart in the source and are kept apart here.

Legend:
[1] = tested on: L1210 TG/R
[2] = tested on: P815-E176
[3] = tested on: L5178Y/ara-C
[4] = tested on: Ehrlich ascites resistant to 5-fluorodeoxyuridine (FUdR); conditions: 5-Fluorodeoxyuridine-resistant Ehrlich ascites
[5] = tested on: mouse leukemia L1210; conditions: L1210 cells
[6] = tested on: human nasopharyngeal KB cells
[7] = tested on: 36 human tumor cell lines
[8] = tested on: 11 human tumor xenografts; conditions: 11 xenografts
[9] = tested on: L1210/CA; conditions: 1β-D-Arabinofuranosylcytosine-resistant L1210/CA
[10] = tested on: P815/FU; conditions: 5-Fluorouracil-resistant P815/FU
[11] = tested on: L1210/MP(III)
[12] = tested on: L1210/ara-C
[13] = tested on: ara-C-resistant neoplasms
[14] = tested on: AKR/r-AzCR; conditions: 5-Azacytidine-resistant AKR/r-AzCR
[15] = target: nucleoside transport (thymidine uptake); conditions: for Ki: read-out: Ki value for inhibition of thymidine uptake
[16] = tested on: explants of intact rat colonic mucosa
[17] = tested on: L1210 cells
[18] = tested on: equilibrative NBMPR-sensitive nucleoside transporter (es); conditions: growth-inhibitory concentrations
[19] = tested on: Ehrlich ascites (AZU 1); conditions: 6-Azauracil-resistant Ehrlich ascites (AZU 1)
[20] = in vivo
[21] = rhesus monkey, in vivo
[22] = tested on: Ehrlich ascites (EAC-R2); conditions: 6-Methyl thiopurine ribonucleoside-resistant Ehrlich ascites (EAC-R2)
[23] = tested on: ovarian cancer; conditions: previously treated patients
[24] = 6-Mercaptopurine-resistant L1210/MP(III)
[25] = Thioguanine-resistant L1210 TG/R
[26] = 5-Fluorouracil-resistant P815-E176

O=P1(N(CCCl)CCCl)NCCCO1 (stereo not shown) [Cytoxan]
Response to chemotherapeutic drugs: Same as parent line ([1]; mouse, in vivo): no change in response; also recorded: Cytoxan
Response to chemotherapeutic drugs: Same as parent line ([2]; in vivo): no change in response; also recorded: Cytoxan
Response to chemotherapeutic drugs: Same as parent line ([3]; in vivo): Cytoxan

O=c1[nH]c(=O)n([C@H]2C[C@H](O)[C@@H](CO)O2)cc1C(F)(F)F [Compound F3TdR, 5-trifluoromethyl-2′-deoxyuridine]
Response to chemotherapeutic drugs: Cross-resistant [4]: cross-resistant; also recorded: F3TdR

C#C[C@@]1(O)[C@@H](CO)O[C@@H](n2ccc(=O)[nH]c2=O)[C@@H]1O [EUrd, 1-(3-C-ethynyl-beta-D-ribo-pentofuranosyl)uracil]
IC50 [5]: 130 nM
IC50 [6]: 29 nM
1050 values [7]: nanomolar to micromolar range
human tumors with potent inhibition [8]: 8 of 11

O=NN(CCCl)C(=O)NCCCl [BCNU, 1,3-bis(2-chloroethyl)-1-nitrosourea]
Response to chemotherapeutic drugs: Same as parent line [9]: BCNU

Nc1nc(=O)n([C@@H]2O[C@H](CO)[C@@H](O)[C@@H]2O)cc1F [Ara-FC, 1β-D-arabinofuranosyl-5-fluorocytosine]
Response to chemotherapeutic drugs: Same as parent line [10]: Ara-FC
Response to chemotherapeutic drugs: Same as parent line ([10]; listed as ara-FC): retained the same sensitivity

CO[C@@]12[C@H](COC(N)=O)C3=C(C(=O)C(C)=C(N)C3=O)N1C[C@@H]1N[C@@H]12 [mitomycin C]
Response to chemotherapeutic drugs: collaterally sensitive ([11]; mouse, in vivo): collaterally sensitive

Nc1n[nH]c(N)n1 [Guanazole]
Response to chemotherapeutic drugs: Same as parent line ([12]; in vivo): Guanazole TSC
cross-resistance of ara-C-resistant neoplasms to the drug ([13]; in vivo): no cross-resistance

CN(Cc1cnc2nc(N)nc(N)c2n1)c1ccc(C(=O)N[C@@H](CCC(=O)O)C(=O)O)cc1 [Methotrexate]
Response to chemotherapeutic drugs: collaterally sensitive [11, 24]: collaterally sensitive
Response to chemotherapeutic drugs: Same as parent line [1, 25]: Methotrexate
Response to chemotherapeutic drugs: Same as parent line ([1]; Thioguanine-resistant L1210 TG/R, listed as methotrexate): not altered
Response to chemotherapeutic drugs: Same as parent line [2, 26]: Methotrexate
Response to chemotherapeutic drugs: Same as parent line ([3]; L5178Y/ara-C): Methotrexate

Nc1nc2nc[nH]c2c(=S)[nH]1 [Thioguanine]
Response to chemotherapeutic drugs: Same as parent line [2, 26]: Thioguanine

Nc1ncn([C@H]2C[C@H](O)[C@@H](CO)O2)c(=O)n1 [AzCdR, 5-aza-2′-deoxycytidine]
Response to chemotherapeutic drugs: Cross-resistant [14]: cross-resistant; also recorded: AzCdR

OCCN(CCO)c1nc(N2CCCCC2)c2nc(N(CCO)CCO)nc(N3CCCCC3)c2n1 [dipyridamole]
Ki [15]: 280 nM
incorporation of tritiated TdR into DNA [16]: reduced
reduction of the LC90 of nolatrexed ([17]; absence of salvageable thymidine): > threefold

O=c1[nH]cc(F)c(=O)[nH]1 [5-fluorouracil]
human tumors with potent inhibition [8]: only one tumor
expression of es [18]: increases
incorporation of tritiated TdR into DNA [16]: not altered
levels of tritiated deoxyuridine [16]: reduced
Response to chemotherapeutic drugs: Cross-resistant [1, 25]: 5-Fluorouracil
Response to chemotherapeutic drugs: Cross-resistant [4]: 5-Fluorouracil
Response to chemotherapeutic drugs: collaterally sensitive [19]: 5-Fluorouracil
Response to chemotherapeutic drugs: collaterally sensitive ([19]; listed as FU): collaterally sensitive

O=c1cnn([C@@H]2O[C@H](CO)[C@@H](O)[C@H]2O)c(=O)[nH]1 [Compound 6-Azauridine, 6-Azauridine]
Response to chemotherapeutic drugs: Cross-resistant [19]: 6-Azauridine
Response to chemotherapeutic drugs: Cross-resistant ([19]; listed as 6-azauridine): cross-resistant

S=P(N1CC1)(N1CC1)N1CC1 [Thio-TEPA, triethylenethiophosphoramide]
Response to chemotherapeutic drugs: collaterally sensitive ([1]; mouse, in vivo): Thio-TEPA
Response to chemotherapeutic drugs: Cross-resistant ([2]; in vivo): cross-resistance; also recorded: Thio-TEPA

[N-]=[N+]=CC(=O)OC[C@H](N)C(=O)O [azaserine]
Response to chemotherapeutic drugs: collaterally sensitive [11, 24]: collaterally sensitive
Response to chemotherapeutic drugs: Same as parent line [1, 25]: not altered; also recorded: azaserine
Response to chemotherapeutic drugs: Same as parent line [2, 26]: Azaserine

CCOC(=O)NO [Hydroxycarbamic Acid ethyl ester]
Response to chemotherapeutic drugs: Same as parent line [9]: Hydroxycarbamic

Neocarzinostatin
Response to chemotherapeutic drugs: collaterally sensitive ([11]; mouse, in vivo): collateral sensitivity; also recorded: Neocarzinostatin

Cc1cn([C@H]2C[C@H](O)[C@@H](CO)O2)c(=O)[nH]c1=O [TdR, Thymidine]
expression of es [18]: no significant effect

NC(=S)NN=Cc1ccccn1 [TSC, pyridine-2-carboxaldehyde thiosemicarbazone]
Response to chemotherapeutic drugs: Same as parent line ([12]; L1210/ara-C (Schabel et al., 1971)): Guanazole TSC
cross-resistance of ara-C-resistant neoplasms to the drug ([13]; several other ara-C-resistant neoplasms): no cross-resistance

NC(=O)c1csc([C@@H]2O[C@H](CO)[C@@H](O)[C@H]2O)n1 [tiazofurin, 2-B-D-Ribofuranosylthiazole-4-Carboxamide]
antitumor activity [20]: No antitumor activity was observed
dose limiting toxicities [20]: pericarditis and clinical symptoms suggestive of a more generalized serositis
maximally tolerated dose [20]: 1650 mg/m2
patients with sustained depletion of guanine nucleotide pools [20]: 1 of 6

C[C@@]1(CO)[C@H](O)CC[C@@]2(C)[C@H]1CC[C@H]1C[C@@H]3C[C@@]12CC[C@]3(O)CO [aphidicolin]
expression of es [18]: no significant increase

COc1ccc(CNc2nc(N(CCO)CCO)nc3c(NCc4ccc(OC)cc4)nc(N(CCO)CCO)nc23)cc1 [NU3076]
inhibition of thymidine uptake in the presence of AGP ([15]; AGP 5 mg ml(−1)): not significantly affected
Ki [15]: 100 nM
FU cytotoxicity [17]: significant potentiation
reduction of the LC90 of nolatrexed [17]: > threefold

Nc1ncn([C@@H]2O[C@H](CO)[C@@H](O)[C@@H]2O)c(=O)n1 [AAC, Arabinosyl-5-azacytosine]
CSF clearance exceeds the rate of CSF bulk flow [21]: 5 fold
greater CSF drug exposure, intrathecal or intraventricular versus systemic [21]: 50 fold
area under the CSF concentration x time curve, intraventricular 10 mg versus intravenous 200 mg/kg ([21]; 200 mg/kg): fifty fold
peak CSF concentration, intraventricular 10 mg versus intravenous 200 mg/kg ([21]; 200 mg/kg): one hundred
CSF clearance ([21]; icv or intrathecal, 10 mg): 0.2 mL/min

Nc1nc(N)c2c(Cl)c(CNc3ccc(C(=O)N[C@@H](CC(=O)O)C(=O)O)cc3)ccc2n1 [Chlorasquin]
Response to chemotherapeutic drugs: collaterally sensitive ([11]; mouse, in vivo): Chlorasquin

N[C@@H](Cc1ccc(N(CCCl)CCCl)cc1)C(=O)O [L-PAM, L-phenylalanine mustard methanol]
Response to chemotherapeutic drugs: collaterally sensitive ([1]; mouse, in vivo): L-PAM
Response to chemotherapeutic drugs: collaterally sensitive ([2]; in vivo): L-PAM

Nc1ncnc2c([C@@H]3O[C@H](CO)[C@@H](O)[C@H]3O)[nH]nc12 [Formycin]
Response to chemotherapeutic drugs: Cross-resistant [22]: Formycin

COCC(COc1nc(N2CCCCC2)c2nc(OCC(COC)OC)nc(N3CCCCC3)c2n1)OC (stereo not shown) [NU3059]
growth inhibitory activity of the TS inhibitor CB3717 ([17]; analogue 10 microM): enhance

Cc1c(CNc2ccc(C(=O)N[C@@H](CC(=O)O)C(=O)O)cc2)ccc2ncnc(N)c12 [Methasquin]
Response to chemotherapeutic drugs: collaterally sensitive [11, 24]: Methasquin

CN(Cc1cnc2nc(N)[nH]c(=O)c2n1)c1c(Cl)cc(C(=O)NC(CCC(=O)O)C(=O)O)cc1Cl (stereo not shown) [DCM, 3′,5′-dichloromethopterin]
Response to chemotherapeutic drugs: Same as parent line [9]: DCM

COC(COC(N)=O)C1=C(N2CC2)C(=O)C(C)=C(N2CC2)C1=O (stereo not shown) [Carbazilquinone]
Response to chemotherapeutic drugs: collaterally sensitive ([11]; mouse, in vivo): collateral sensitivity; also recorded: Carbazilquinone
Response to chemotherapeutic drugs: Same as parent line ([3]; in vivo): Carbazilquinone
cross-resistance of ara-C-resistant neoplasms to the drug ([13]; in vivo): no cross-resistance

gemcitabine-cisplatin
response, doublets [23]: 53%

O=c1[nH]c(=O)n([C@H]2C[C@H](O)[C@@H](CO)O2)cc1F [Compound 5-FUdR]
incorporation of tritiated TdR into DNA [16]: not altered
levels of tritiated deoxyuridine [16]: reduced

B1: L-asparaginase: L-asparaginase, enzyme drug (protein, UniProt P00805 23-348, looked up)
L-asparaginase 2: LPNITILATGGTIAGGGDSATKSNYTVGKVGVENLVNAVPQLKDIANVKGEQVVNIGSQDMNDNVWLTLAKKINTDCDKTDGFVITHGTDTMEETAYFLDLTVKCDKPVVMVGAMRPSTSMSADGPFNLYNAVVTAADKASANRGVLVVMNDTVLDGRDVTKTNTTDVATFKSVNYGPLGYIHNGKIDYQRTPARKHTSDTPFDVSKLNELPKVGIVYNYANASDLPAKALVDAGYDGIVSAGVGNGNLYKSVFDTLATAAKTGTAVVRSSRVPTGATTQDAEVDDAKYGFVASGTLNPQKARVLLQLALTQTKDPQQIQQIFNQY
Response to chemotherapeutic drugs: Cross-resistant ([3]; L5178Y/ara-C): L-asparaginase
Response to chemotherapeutic drugs: collaterally sensitive ([3]; L5178Y/ara-C): collaterally sensitive
